Experimental findings from patent EP3965790B1, “PENTACYCLIC TRITERPENES IN THE TREATMENT OF VITILIGO” (Pierre Fabre Dermo-Cosmétique, priority 2019, dated 2020) are described below.

A short description of test [1]: ORAC (Oxygen Radical Antioxydant Capacity) antioxidant test in tubo. The conditions noted are these: Trolox standard, AAPH, fluorescéine. The source says: Le stress oxydatif fait partie des causes possibles de l'apparition du vitiligo. Cette expérience a pour objectif de mesurer l'activité antioxydante de chaque triterpène pentacyclique et des deux extraits, en comparaison avec un témoin positif bien connu, la vitamine C. La méthode in tubo utilisée est celle d'évaluation ORAC (Oxygen Radical Antioxydant Capacity) adaptée de celle décrite par Davalos et al. (J Agric Food Chem 52(1):48-54, 2004). L'indice ORAC permet d'évaluer la capacité anti-oxydante de chaque composé testé dans l'exemple 2. Ce test permet d'évaluer et de classer les différents composés testés suivant leur pouvoir anti-oxydant vis-à-vis des radicaux libres péroxyl. Le AAPH (2,2'-azobis-2-méthyl-propanimidamide, dihydrochloride) est à l'origine de radicaux libres péroxyl. Ce test est utilisé pour mimer la cinétique de dégradation de la fluorescéine par les radicaux libres. Ceci se traduit par une diminution de fluorescence en fonction du temps et de la concentration en actif anti-oxydant présent dans l'extrait testé. L'acide 3,4-dihydro-6-hydroxy-2,5,7,8-tétraméthyl-2H-1-benzopyran-2-carboxylique ou Trolox est utilisé comme standard, il s'agit d'un analogue hydrophile de la vitamine E (anti-oxydant connu). L'ajout de Trolox (gamme de référence) ou d'extrait ou triterpène pentacyclique, protège la fluorescéine de la dégradation. Ceci permet d'évaluer une activité antioxydante mesurée par rapport à une gamme de Trolox.
Toutes les solutions sont réalisées dans du tampon phosphate 75 mM, pH à 7,6. La fluorescéine est à 1,17 µM (solution mère […]). AAPH à 125 mM est préparé extemporanément, Trolox à 1 mM. Dans une plaque de 96 puits noir, il est déposé 20 µl d'antioxydant (gamme Trolox ou composé à tester), 160 µl de fluorescéine à 1,17 µM. la plaque est recouverte d'un film, puis est incubée pendant 15 minutes à 37°C. la solution de AAPH est ajoutée manuellement et le plus rapidement possible à raison de 20 µl par puits. La plaque est alors incubée immédiatement à 37°C dans un spectrofluorimètre (SpectraMax). Une lecture est enregistrée toutes les minutes pendant 90 minutes. La longueur d'onde d'excitation est de 485 nm et la longueur d'onde d'émission est de 520 nm. Chaque essai est réalisé en triplicata.
Les aires sous la courbe (AUC) pour chacun des essais sont calculées. Les AUC nets sont déterminées de la façon suivante : AUC net = AUC point de gamme ou échantillon−AUC blanc. [formula]
La droite d'étalonnage est établie, la concentration en Trolox (µM) en fonction de l'AUC net. L'équation de la droite est utilisée pour déterminer un équivalent en Trolox (µM) pour chacun des échantillons dosés.
Eq Trolox en µM = a x (AUC net)2 + b x (AUC net), a et b sont déterminés par l'équation de la droite.
Pour être dosés, les échantillons sont dilués, de sorte que les valeurs mesurées soient comprises dans la gamme étalon utilisée pour le dosage. L'acide ascorbique (vitamine C) est utilisé comme référence.
L'indice ORAC correspond à des […] de Trolox / 100g de matières.
Les résultats ci-dessous ont été calculés pour 100g d'extrait en Triterpènes, Tingénine A, Tingénine B et célastrol, soit le calcul : [formula]

Test [2] concerns MMP-9. Kind of test: RT-qPCR gene expression in cytokine-stimulated keratinocytes. The test is classed as cell-based, humains. The conditions noted are these: 24 h. Background: Real-time PCR tracks product formation cycle by cycle.
In test [3] the test system is CXCL10. Described as above. The class given is cell-based, humains. The following applies: 24 h.
Test [4] deals with CCL5. The test is described as above. The class given is cell-based, humains. The following applies: 24 h.
In test [5] the test system is S100A7. Described as above. The test is classed as cell-based, humains. The conditions noted are these: 24 h.
For test [6], the system named is IL-23A. The test is described as above. The test is classed as cell-based, humains. The following applies: 24 h.
Test [7] relates to IL-8. Described as above. The test is classed as cell-based, humains. The following applies: 24 h.
Test [8] deals with CCL20. Described as above. The class given is cell-based, humains. The following applies: 24 h.
Test [9] deals with CXCL16. The description is as above. The test is classed as cell-based, humains. The following applies: 24 h.
Test [10] has as its system CXCL11. Described as above. The class given is cell-based, humains. The conditions noted are these: 24 h.
The subject of test [11] is MMP-9. Kind of test: ELISA of MMP-9 release by cytokine-stimulated keratinocytes. The class given is cell-based, humains. The following applies: for Libération de MMP-9 (pg/ml) ± sem: stimulated keratinocytes, 48 h, supernatant; for effet sur la libération de MMP-9 (in words): concentrations as in Tableau 5 (JAK 10 µM; TA, TB 500 ng/ml; Célastrol 100 ng/ml; extrait 1 200 ng/ml; extrait 2 150 ng/ml).

Test [12] deals with IL-8. Kind of test: ELISA of IL-8 release by cytokine-stimulated keratinocytes. The test is classed as cell-based, humains. The conditions noted are these: for effet sur la libération d'IL-8 (in words): concentrations as in Tableau 5 (JAK 10 µM; TA, TB 500 ng/ml; Célastrol 100 ng/ml; extrait 1 200 ng/ml; extrait 2 150 ng/ml).
Test [13] relates to DEFB4A. Nature of the test: RT-qPCR gene expression in cytokine-stimulated keratinocytes. The test is classed as cell-based, humains. The conditions noted are these: 24 h.
[14] abbreviates: 10µM, stimulated keratinocytes (IL-17, Oncostatin M, TNFα 3ng/ml).
Where [15] appears, read: 15 ng/ml, stimulated keratinocytes.
Where [16] appears, read: 45 ng/ml, stimulated keratinocytes.
The mark [17] stands for this setting: 135 ng/ml, stimulated keratinocytes.

Consider `O=C1O[C@H]([C@@H](O)CO)C(O)=C1O` [Vitamine C, acide ascorbique, reference compound], for which the “Indice ORAC / 100g triterpènes (x 1000)” value in test [1] (3 µg/ml) is listed as 69 813 / 100g triterpènes (x 1000).

For the compound `CC(C)(C)c1nc2c3cc[nH]c(=O)c3c3cc(F)ccc3c2[nH]1` [Inhibiteur JAK, reference compound], the “% Stimulation / Gènes témoins, MMP-9” value in [2] (setting [14]) was 40%. Besides, in test [3] (setting [14]), the “% Stimulation / Gènes témoins, CXCL10” value amounted to 38%. For the same compound, in [4] (setting [14]), the “% Stimulation / Gènes témoins, CCL5” value is given as 16%. For the same compound, in test [5] (setting [14]), the “% Stimulation / Gènes témoins, S100A7” value worked out at 25%. In [6] (setting [14]), the “% Stimulation / Gènes témoins, IL-23A” value amounted to 67%. Besides, in [7] (setting [14]), the “% Stimulation / Gènes témoins, IL-8” value came out at 18%. Besides, in test [8] (setting [14]), the “% Stimulation / Gènes témoins, CCL20” value amounted to 292%. In addition, the “% Stimulation / Gènes témoins, CXCL16” value in [9] (setting [14]) worked out at 76%. Also, the “% Stimulation / Gènes témoins, CXCL11” value in [10] (setting [14]) is given as 14%. Besides, in test [11] (10 µM), the “Libération de MMP-9 (pg/ml) ± sem” value was 389 ± 18 pg/mL. Moreover, in [11], the “effet sur la libération de MMP-9 (in words)” value is “inhibe fortement et statistiquement”. Besides, the “effet sur la libération d'IL-8 (in words)” value in [12] is given as “inhibe fortement et statistiquement”. The “% Stimulation / Gènes témoins, DEFB4A” value in [13] (setting [14]) was determined as 7%.

Consider `CC1=C(O)C(=O)C=C2C1=CC=C1[C@@]2(C)CC[C@@]2(C)[C@@H]3C[C@](C)(C(=O)O)CC[C@]3(C)CC[C@]12C` [Célastrol], for which the “% Stimulation / Gènes témoins, MMP-9” value in test [2] (setting [15]) amounted to 139%; in test [2] (setting [16]) it was 88%; in test [2] (setting [17]) it was 9%. In addition, the figures for the “% Stimulation / Gènes témoins, CXCL10” value in test [3] (setting [15]), in [3] (setting [16]) and in [3] (setting [17]) were 72%, 20% and 10%, respectively. Besides, the figures for the “% Stimulation / Gènes témoins, CCL5” value in [4] (setting [15]), in [4] (setting [16]) and in [4] (setting [17]) were 79%, 12% and 3%, respectively. The “% Stimulation / Gènes témoins, S100A7” value was determined as 78% in [5] (setting [15]), 53% in [5] (setting [16]) and 16% in test [5] (setting [17]). Also, the “Indice ORAC / 100g triterpènes (x 1000)” value in test [1] (30 µg/ml) is 126 466 / 100g triterpènes (x 1000). The “% Stimulation / Gènes témoins, IL-23A” value stood at 63% in test [6] (setting [15]), 41% in test [6] (setting [16]) and 15% in test [6] (setting [17]). Besides, the “% Stimulation / Gènes témoins, IL-8” value in [7] (setting [15]) came out at 100%; in test [7] (setting [16]), 36%; in [7] (setting [17]) it was 5%. Moreover, the results for the “% Stimulation / Gènes témoins, CCL20” value in test [8] (setting [15]), in test [8] (setting [16]) and in test [8] (setting [17]) were 86%, 35% and 11%, respectively. The “% Stimulation / Gènes témoins, CXCL16” value in test [9] (setting [15]) is given as 95%; in test [9] (setting [16]) it was 51%; in test [9] (setting [17]) it was 23%. The “% Stimulation / Gènes témoins, CXCL11” value in test [10] (setting [15]) is listed as 59%; in [10] (setting [16]), 5%; in [10] (setting [17]), 1%. Further, in [11] (100 ng/ml), the “Libération de MMP-9 (pg/ml) ± sem” value was 395 ± 15 pg/mL. In test [11], the “effet sur la libération de MMP-9 (in words)” value is recorded as “effet inhibiteur”. In addition, the “Libération d'IL-8 (pg/ml) ± sem” value in [12] (100 ng/ml, stimulated keratinocytes, 48 h, supernatant) came to 83 ± 7 pg/mL. Besides, the “effet sur la libération d'IL-8 (in words)” value in [12] is on record as “effet inhibiteur”. For the same compound, the “% Stimulation / Gènes témoins, DEFB4A” value came out at 90% in [13] (setting [15]), 32% in [13] (setting [16]) and 3% in [13] (setting [17]).
